Experimental data from patent US20240208992A1, “MACROCYCLES AS CFTR MODULATORS” (Idorsia Pharmaceuticals Ltd, priority 2021, published 2024).

Molecular target: human F508del-CFTR (Homo sapiens, UniProt P13569, DEL508-508)
Assay: F508del-CFTR cell surface expression (corrector activity), DiscoveRx ß-galactosidase complementation chemiluminescence assay in recombinant U2OS cell line;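 note: U2OS cells co-expressing ProLink-tagged F508del-CFTR and a membrane-anchored enzyme acceptor, where more surface CFTR restores β-galactosidase activity measured by chemiluminescence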
Details: U2OS cell line, 16h compound incubation; for EC50: EC50, F508del-CFTR cell surface expression, geomean values; for Emax: U2OS, in relation to the Emax of the corrector lumacaftor (=100%), arithmetic mean values

Sequence of human F508del-CFTR (P13569 with tags, fused parts or gaps DEL508-508): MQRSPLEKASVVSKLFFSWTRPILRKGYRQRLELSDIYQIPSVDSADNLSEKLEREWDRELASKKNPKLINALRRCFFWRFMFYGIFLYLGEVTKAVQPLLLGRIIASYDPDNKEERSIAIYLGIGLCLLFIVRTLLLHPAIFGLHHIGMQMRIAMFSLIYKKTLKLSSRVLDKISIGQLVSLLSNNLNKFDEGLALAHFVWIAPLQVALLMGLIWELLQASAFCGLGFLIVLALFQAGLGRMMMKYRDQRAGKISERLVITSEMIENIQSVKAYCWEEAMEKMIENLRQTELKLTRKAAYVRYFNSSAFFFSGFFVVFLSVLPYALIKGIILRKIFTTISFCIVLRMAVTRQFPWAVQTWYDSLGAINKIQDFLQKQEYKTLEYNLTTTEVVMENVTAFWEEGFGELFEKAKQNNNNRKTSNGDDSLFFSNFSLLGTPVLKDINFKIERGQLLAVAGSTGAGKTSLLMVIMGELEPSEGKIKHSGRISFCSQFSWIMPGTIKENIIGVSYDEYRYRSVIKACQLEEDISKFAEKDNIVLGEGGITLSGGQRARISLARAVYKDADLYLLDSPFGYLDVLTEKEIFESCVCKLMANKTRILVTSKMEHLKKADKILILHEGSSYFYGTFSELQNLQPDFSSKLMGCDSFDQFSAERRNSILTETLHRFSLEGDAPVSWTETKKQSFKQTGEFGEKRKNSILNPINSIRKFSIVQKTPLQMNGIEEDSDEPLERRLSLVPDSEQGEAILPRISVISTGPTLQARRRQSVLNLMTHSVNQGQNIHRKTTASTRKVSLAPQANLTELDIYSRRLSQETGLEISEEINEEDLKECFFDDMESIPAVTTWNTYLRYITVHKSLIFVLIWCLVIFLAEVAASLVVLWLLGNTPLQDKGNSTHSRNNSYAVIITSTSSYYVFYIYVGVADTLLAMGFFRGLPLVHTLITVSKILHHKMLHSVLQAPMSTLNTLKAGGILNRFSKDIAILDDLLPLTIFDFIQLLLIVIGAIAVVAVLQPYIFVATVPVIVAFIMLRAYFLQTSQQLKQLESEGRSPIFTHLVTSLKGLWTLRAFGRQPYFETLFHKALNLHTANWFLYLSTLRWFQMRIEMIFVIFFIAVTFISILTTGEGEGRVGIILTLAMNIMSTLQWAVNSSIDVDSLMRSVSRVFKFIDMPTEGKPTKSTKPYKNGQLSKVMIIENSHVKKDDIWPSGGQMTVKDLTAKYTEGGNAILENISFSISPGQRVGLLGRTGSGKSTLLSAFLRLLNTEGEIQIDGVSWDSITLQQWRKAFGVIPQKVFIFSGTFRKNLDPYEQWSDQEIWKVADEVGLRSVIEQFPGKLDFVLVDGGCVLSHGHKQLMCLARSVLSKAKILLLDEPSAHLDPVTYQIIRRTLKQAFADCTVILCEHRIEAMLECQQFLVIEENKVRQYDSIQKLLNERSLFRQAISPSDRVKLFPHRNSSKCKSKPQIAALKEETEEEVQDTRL

Row | Compound | EC50 | Emax
1 | CC(C)C[C@H]1C(=O)N2CCOC[C@@H]2C(=O)N[C@H](Cc2ccccc2)COc2ccc3ccccc3c2C(=O)N[C@H](C(=O)NCCc2noc3ccccc23)CC(=O)N1C [Example 38, (4aR,7R,18S,22S)-N-(2-(benzo[d]isoxazol-3-yl)ethyl)-7-benzyl-22-isobutyl-21-methyl-5,16,20,23-tetraoxo-1,2,4,4a,5,6,7,8,16,17,18,19,20,21,22,23-hexadecahydronaphtho[1,2-p][1,4]oxazino[3,4-f][1]oxa[4,7,10,14]tetraazacycloheptadecine-18-carboxamide] | 299 nM | 191%
2 | CC(C)C[C@H]1C(=O)N2CCOC[C@@H]2C(=O)N[C@H](Cc2ccccc2)COc2ccc3ccccc3c2C(=O)N[C@H](C(=O)NCCc2ccc3c(c2)OCCO3)CC(=O)N1C [Example 39, (4aR,7R,18S,22S)-7-benzyl-N-(2-(2,3-dihydrobenzo[b][1,4]dioxin-6-yl)ethyl)-22-isobutyl-21-methyl-5,16,20,23-tetraoxo-1,2,4,4a,5,6,7,8,16,17,18,19,20,21,22,23-hexadecahydronaphtho[1,2-p][1,4]oxazino[3,4-f][1]oxa[4,7,10,14]tetraazacycloheptadecine-18-carboxamide] | 415 nM | 450%
3 | CC(C)C[C@H]1C(=O)N2CCOC[C@@H]2C(=O)N[C@H](Cc2ccccc2)COc2ccc3ccccc3c2C(=O)N[C@H](C(=O)NCCc2ccc(C#N)cc2)CC(=O)N1C [Example 40, (4aR,7R,18S,22S)-7-benzyl-N-(4-cyanophenethyl)-22-isobutyl-21-methyl-5,16,20,23-tetraoxo-1,2,4,4a,5,6,7,8,16,17,18,19,20,21,22,23-hexadecahydronaphtho[1,2-p][1,4]oxazino[3,4-f][1]oxa[4,7,10,14]tetraazacycloheptadecine-18-carboxamide] | 897 nM | 147%
4 | CC(C)C[C@H]1C(=O)N2CCOC[C@@H]2C(=O)N[C@H](Cc2ccccc2)COc2ccc3ccccc3c2C(=O)N[C@H](C(=O)NCCc2cccc(-n3nccn3)c2)CC(=O)N1C [Example 41, (4aR,7R,18S,22S)-N-(3-(2H-1,2,3-triazol-2-yl)phenethyl)-7-benzyl-22-isobutyl-21-methyl-5,16,20,23-tetraoxo-1,2,4,4a,5,6,7,8,16,17,18,19,20,21,22,23-hexadecahydronaphtho[1,2-p][1,4]oxazino[3,4-f][1]oxa[4,7,10,14]tetraazacycloheptadecine-18-carboxamide] | 280 nM | 215%
5 | CC(C)C[C@H]1C(=O)N2CCOC[C@@H]2C(=O)N[C@H](Cc2ccccc2)COc2ccc3ccccc3c2C(=O)N[C@H](C(=O)NCCc2ccc3c(c2)OCC3)CC(=O)N1C [Example 42, (4aR,7R,18S,22S)-7-benzyl-N-(2-(2,3-dihydrobenzofuran-6-yl)ethyl)-22-isobutyl-21-methyl-5,16,20,23-tetraoxo-1,2,4,4a,5,6,7,8,16,17,18,19,20,21,22,23-hexadecahydronaphtho[1,2-p][1,4]oxazino[3,4-f][1]oxa[4,7,10,14]tetraazacycloheptadecine-18-carboxamide] | 353 nM | 419%
6 | Cc1noc(C)c1CCNC(=O)[C@@H]1CC(=O)N(C)[C@@H](CC(C)C)C(=O)N2CCOC[C@@H]2C(=O)N[C@H](Cc2ccccc2)COc2ccc3ccccc3c2C(=O)N1 [Example 43, (4aR,7R,18S,22S)-7-benzyl-N-(2-(3,5-dimethylisoxazol-4-yl)ethyl)-22-isobutyl-21-methyl-5,16,20,23-tetraoxo-1,2,4,4a,5,6,7,8,16,17,18,19,20,21,22,23-hexadecahydronaphtho[1,2-p][1,4]oxazino[3,4-f][1]oxa[4,7,10,14]tetraazacycloheptadecine-18-carboxamide] | 862 nM | 137%
7 | CCc1nc(CCNC(=O)[C@@H]2CC(=O)N(C)[C@@H](CC(C)C)C(=O)N3CCOC[C@@H]3C(=O)N[C@H](Cc3ccccc3)COc3ccc4ccccc4c3C(=O)N2)no1 [Example 44, (4aR,7R,18S,22S)-7-benzyl-N-(2-(5-ethyl-1,2,4-oxadiazol-3-yl)ethyl)-22-isobutyl-21-methyl-5,16,20,23-tetraoxo-1,2,4,4a,5,6,7,8,16,17,18,19,20,21,22,23-hexadecahydronaphtho[1,2-p][1,4]oxazino[3,4-f][1]oxa[4,7,10,14]tetraazacycloheptadecine-18-carboxamide] | 571 nM | 247%
8 | CC(C)C[C@H]1C(=O)N2CCOC[C@@H]2C(=O)N[C@H](Cc2ccccc2)COc2ccc3ccccc3c2C(=O)N[C@H](C(=O)NCCc2noc(C3CC3)n2)CC(=O)N1C [Example 45, (4aR,7R,18S,22S)-7-benzyl-N-(2-(5-cyclopropyl-1,2,4-oxadiazol-3-yl)ethyl)-22-isobutyl-21-methyl-5,16,20,23-tetraoxo-1,2,4,4a,5,6,7,8,16,17,18,19,20,21,22,23-hexadecahydronaphtho[1,2-p][1,4]oxazino[3,4-f][1]oxa[4,7,10,14]tetraazacycloheptadecine-18-carboxamide] | 682 nM | 324%
9 | CC(C)C[C@H]1C(=O)N2CCOC[C@@H]2C(=O)N[C@H](Cc2ccccc2)COc2cnc3ccccc3c2C(=O)N[C@H](C(=O)NCCc2csc(C(C)C)n2)CC(=O)N1C [Example 46, (9S,13S,19aR,22R)-22-benzyl-13-isobutyl-N-(2-(2-isopropylthiazol-4-yl)ethyl)-12-methyl-7,11,14,20-tetraoxo-7,8,9,10,11,12,13,14,16,17,19,19a,20,21,22,23-hexadecahydro-[1,4]oxazino[3′,4′:6,7][1]oxa[4,7,10,14]tetraazacycloheptadecino[17,16-c]quinoline-9-carboxamide] | 679 nM | 137%
10 | CCc1ccc(CCNC(=O)[C@@H]2CC(=O)N(C)[C@@H](CC(C)C)C(=O)N3CCOC[C@@H]3C(=O)N[C@H](Cc3ccccc3)COc3cnc4ccccc4c3C(=O)N2)cc1 [Example 47, (9S,13S,19aR,22R)-22-benzyl-N-(4-ethylphenethyl)-13-isobutyl-12-methyl-7,11,14,20-tetraoxo-7,8,9,10,11,12,13,14,16,17,19,19a,20,21,22,23-hexadecahydro-[1,4]oxazino[3′,4′:6,7][1]oxa[4,7,10,14]tetraazacycloheptadecino[17,16-c]quinoline-9-carboxamide] | 213 nM | 247%
11 | CC(C)C[C@H]1C(=O)N2CCOC[C@@H]2C(=O)N[C@H](Cc2ccccc2)COc2cnc3ccccc3c2C(=O)N[C@H](C(=O)NCCc2ccc(C(C)(C)C)cc2)CC(=O)N1C [Example 48, (9S,13S,19aR,22R)-22-benzyl-N-(4-(tert-butyl)phenethyl)-13-isobutyl-12-methyl-7,11,14,20-tetraoxo-7,8,9,10,11,12,13,14,16,17,19,19a,20,21,22,23-hexadecahydro-[1,4]oxazino[3′,4′:6,7][1]oxa[4,7,10,14]tetraazacycloheptadecino[17,16-c]quinoline-9-carboxamide] | 409 nM | 151%
12 | CC(C)C[C@H]1C(=O)N2CCOC[C@@H]2C(=O)N[C@H](Cc2ccccc2)COc2cnc3ccccc3c2C(=O)N[C@H](C(=O)NCCc2ccc(Br)cc2)CC(=O)N1C [Example 49, (9S,13S,19aR,22R)-22-benzyl-N-(4-bromophenethyl)-13-isobutyl-12-methyl-7,11,14,20-tetraoxo-7,8,9,10,11,12,13,14,16,17,19,19a,20,21,22,23-hexadecahydro-[1,4]oxazino[3′,4′:6,7][1]oxa[4,7,10,14]tetraazacycloheptadecino[17,16-c]quinoline-9-carboxamide] | 347 nM | 136%
13 | CC(C)C[C@H]1C(=O)N2CCOC[C@@H]2C(=O)N[C@H](Cc2ccccc2)COc2cnc3ccccc3c2C(=O)N[C@H](C(=O)NCCc2ccccc2F)CC(=O)N1C [Example 50, (9S,13S,19aR,22R)-22-benzyl-N-(2-fluorophenethyl)-13-isobutyl-12-methyl-7,11,14,20-tetraoxo-7,8,9,10,11,12,13,14,16,17,19,19a,20,21,22,23-hexadecahydro-[1,4]oxazino[3′,4′:6,7][1]oxa[4,7,10,14]tetraazacycloheptadecino[17,16-c]quinoline-9-carboxamide] | 558 nM | 256%
14 | CC(C)C[C@H]1C(=O)N2CCOC[C@@H]2C(=O)N[C@H](Cc2ccccc2)COc2cnc3ccccc3c2C(=O)N[C@H](C(=O)NCCc2cccc(Cl)c2)CC(=O)N1C [Example 51, (9S,13S,19aR,22R)-22-benzyl-N-(3-chlorophenethyl)-13-isobutyl-12-methyl-7,11,14,20-tetraoxo-7,8,9,10,11,12,13,14,16,17,19,19a,20,21,22,23-hexadecahydro-[1,4]oxazino[3′,4′:6,7][1]oxa[4,7,10,14]tetraazacycloheptadecino[17,16-c]quinoline-9-carboxamide] | 352 nM | 187%
15 | CC(C)C[C@H]1C(=O)N2CCOC[C@@H]2C(=O)N[C@H](Cc2ccccc2)COc2cnc3ccccc3c2C(=O)N[C@H](C(=O)NCCc2cccc(Br)c2)CC(=O)N1C [Example 52, (9S,13S,19aR,22R)-22-benzyl-N-(3-bromophenethyl)-13-isobutyl-12-methyl-7,11,14,20-tetraoxo-7,8,9,10,11,12,13,14,16,17,19,19a,20,21,22,23-hexadecahydro-[1,4]oxazino[3′,4′:6,7][1]oxa[4,7,10,14]tetraazacycloheptadecino[17,16-c]quinoline-9-carboxamide] | 348 nM | 176%
16 | CC(C)C[C@H]1C(=O)N2CCOC[C@@H]2C(=O)N[C@H](Cc2ccccc2)COc2cnc3ccccc3c2C(=O)N[C@H](C(=O)NCCc2ccc3c(c2)OCCO3)CC(=O)N1C [Example 53, (9S,13S,19aR,22R)-22-benzyl-N-(2-(2,3-dihydrobenzo[b][1,4]dioxin-6-yl)ethyl)-13-isobutyl-12-methyl-7,11,14,20-tetraoxo-7,8,9,10,11,12,13,14,16,17,19,19a,20,21,22,23-hexadecahydro-[1,4]oxazino[3′,4′:6,7][1]oxa[4,7,10,14]tetraazacycloheptadecino[17,16-c]quinoline-9-carboxamide] | 596 nM | 404%
